Laboratory results published in a melting point compilation (Tetko et al.; mined from patent text by program, amines drawn as free bases though some values may be those of a salt).
Residues, ends and D or L forms follow the SMILES beside them. *: point of attachment. Cbz = O=C(OCc1ccccc1)*

| SMILES | melting point [°C] |
| --- | --- |
| CCCCc1nc(SCC)c(C(=O)O)n1Cc1ccc(C(=O)O)cc1 | 168 |
| CNC(=S)NCC1CN(c2ccc(N3CCOCC3)c(F)c2)C(=O)O1 (stereo not given) | 158 to 160 |
| CC(c1cccnc1)N(c1ccc(F)cc1F)S(C)(=O)=O (stereo not given) | 76 to 78 |
| CCCCCCCCC(O)C(=O)NCCSSCCNC(=O)C(O)CCCCCCCC (stereo not given) | 180 to 183 |
| COc1cccc(C2(N(C)C)CCC(C(O)Cc3ccccc3)CC2)c1 (stereo not given) | 72 |
| O=C1CCc2cc(C3=NNC(=O)C4CCC34)ccc2N1 (stereo not given) | 349 to 353 |
| O=C(C=Cc1ccc(O)c([N+](=O)[O-])c1)NC12CC3CC(CC(C3)C1)C2 | 162 to 163 |
| COC(=O)CC[C@H](NC(=O)c1ccc(N(C)CCc2c(NC(C)=O)nc(NC(C)=O)[nH]c2=O)cc1)C(=O)OC | 168 to 175 |
| O=C1CCc2c1cccc2C(=O)c1ccccc1 | 86 to 88 |
| CC(C)c1nn(-c2ncc(C#N)cn2)cc1CCCO | 153 to 154 |
| CCCCOc1cc(CCS(N)(=O)=O)n(Cc2ccc(Cl)cc2Cl)n1 | 134 to 136 |
| CN(C)C(=O)Cn1nnnc1S | 204 to 205 |
| CCNC(=O)Nc1c(C(O)(C(F)(F)F)C(F)(F)F)ccc2c1CCC2 | 142 to 143 |
| COc1cccc(C=C2SC(=S)NC2=O)c1OC | 268 to 269 |
| O=C1c2ccccc2-c2ncccc21 | 132 to 136 |
| CC1(C)C=C(c2ccncc2O)c2ccccc2O1 | 228 to 230 |
| CCOC(=O)C1(CCCN(C)C)CCCCC1(O)c1ccccc1 (stereo not given) | 97 to 99 |
| NC(=NO)c1cccc(-c2nc3sccn3c2-c2ccnc(NC3CCCN(S(=O)(=O)c4ccc(Cl)cc4)C3)n2)c1 (stereo not given) | 272 to 273 |
| COc1nc(OC)c(C(C)C)c(C(C#N)c2cc(Cl)cc(Cl)c2)n1 (stereo not given) | 135 to 136 |
| Cc1cc(NC(=O)C2(C)CC2)ccc1OC(C)C | 99 to 101 |
| COc1ccc(C2Sc3c(ccc4ccccc34)N(CCN(C)C)C(=O)C2OC(=O)c2ccc(O)c(O)c2)cc1 (stereo not given) | 146 to 148 |
| CCCC(CO)(CO)CO | 100 to 101 |
| CNc1nc(-c2cccc(NC(=O)c3ccc(Cl)c(Cl)c3)c2)c2cc(OC)c(OC)cc2n1 | 134 to 136 |
| CCOC(=O)c1conc1-c1ccc(-c2ccccc2)cc1 | 81 to 82 |
| Cc1cccc(-c2cc(C(=O)NCCCCCCCc3ccccc3)cc(-c3cccc(C)c3)c2OCC(=O)O)c1 | 58 to 62 |

| SMILES | melting point [°C] |
| --- | --- |
| S=c1[nH]c(=S)c2[nH]cnc2[nH]1 | 196 to 200 |
| COc1ccc2cc(CCC(C)O)cc(F)c2c1 (stereo not given) | 58 to 60 |
| CNC(=O)NS(=O)(=O)c1ccccc1C=CC(F)(F)F | 190 to 192 |
| O=[N+]([O-])c1ccc(N2CCN(c3cc(N4CCCC4)nc(N4CCCC4)n3)CC2)cc1 | 200 to 201 |
| Cc1nc(Nc2nc3cccc(C)c3[nH]2)nc(O)c1CC(=O)O | > 300 |
| O=C(NNS(=O)(=O)c1ccccc1)c1cc2ccccc2o1 | 164 to 167 |
| CC(=O)NC1CCC(=O)N2CCCC(C(=O)NC(CC(=O)OC(C)(C)C)C(=O)COC(=O)c3c(Cl)cccc3Cl)N2C1=O (stereo not given) | 80 to 125 |
| Cc1cc(N2CCC3(CC2)OCCO3)c2cccc(Br)c2n1 | 156 to 158 |
| CCCCN1C[C@H](CO)[C@@H](O)[C@H](O)C1 | 94 to 95 |
| CN(c1ccc(Cl)cc1)c1nc(=O)c2ccc(-c3ccccc3)nc2s1 | 279 to 280 |
| CN(CCC1CCN(c2noc3cc(F)ccc23)CC1)C(=O)c1noc2ccccc12 | 94 to 97 |
| O=C(OCc1ccccc1)C(CO)N(C(=O)OCc1ccccc1)C(=O)c1ccccc1 (stereo not given) | 94 to 95 |
| O=C1C(=O)N2CCOc3cc([N+](=O)[O-])cc1c32 | 230 to 232 |
| CCSCC1=C(O)CC(C)(C)CC1=O | 134 |
| OC1CSC(Oc2cccc(-c3ccccn3)c2)C(O)C1O (stereo not given) | 138 to 139 |
| Cn1nc(-c2ncc(Cl)cc2F)c(Cl)c1OC(F)F | 95 to 96 |
| O=C(Cc1ccc(Cl)cc1)Nc1cccc(-n2nc(C(F)(F)F)cc2C(F)(F)F)c1 | 209 to 211 |
| CCOc1nc2c(nc1C(=O)O)c(C)nn2CC | 172 |
| NS(=O)(=O)c1cccc2c1SCC=C2 | 214 to 216 |
| O=C(C[C@@H](c1cc(F)cc(F)c1)C(F)(F)F)N1C(=O)OC[C@@H]1Cc1ccccc1 | 127 to 128 |
| NC(=O)CCC(NC(=O)OCc1ccccc1)C(=O)NCC(=O)NCC(=O)NC(CO)C(=O)NC(CC(N)=O)C(=O)NC(Cc1ccccc1)C(N)=O (stereo not given) (Cbz-QGGSNF-NH2; configuration not given here) | 225 to 227 |
| O=C1CCC(N2Cc3cc(CNC(=O)Nc4c(Cl)cccc4Cl)ccc3C2=O)C(=O)N1 (stereo not given) | 238 to 240 |
| CS(=O)(=O)Nc1cccc(Nc2nc(N3CCN(c4ccncc4)CC3)c3nc[nH]c3n2)c1 | 227 to 230 |
| CC(=O)c1ccc(NS(C)(=O)=O)c(Oc2ccccc2S(C)=O)c1 (stereo not given) | 113 to 116 |
| COc1ccc(C2=NN(c3ccc(CC(=O)O)cc3)C(=O)C(C)(C)C2)cc1OC | 186 to 188 |
